Measurements: article PMC8151276, “An Integrated Approach toward NanoBRET Tracers for Analysis of GPCR Ligand Engagement” (Molecules, 2021)
Blank lines part the entries; values can stand above or below the molecule they belong to.

How the values were obtained:
Type in all cases: binding
[1] = target: T1, GRM5 (Homo sapiens, UniProt P41594); assay: NanoBRET screen HiBiT-GRM5 in HEK293
T1 construct: purchased Promega (in-house HiBiT-GPCR construct library, NanoBRET)
Experimental: (§1) Each tracer candidate was screened across the entire library of HiBiT-GPCR constructs using NanoBRET as the detection modality. As depicted in Figure 4A, the specificity of interactions was evaluated through decrease in BRET due to competitive displacement of a bound tracer by excess parental compound. Each tracer was analyzed for binding to each HiBiT-GPCR fusion in the absence and in the presence of competing parental compound. Briefly, HEK293 cells were transfected with HiBiT-GPCR constructs diluted into promoterless DNA to reduce expression and maximize translocation to the cell surface. Each tracer candidate was then screened at concentrations of 1 μM and 0.1 μM across cells expressing these fusions. Cells were treated for 1.5 h with tracer either alone or in the presence of 20 μM competing parental compound (i.e., control). BRET was measured upon addition of purified LgBiT and subsequent complementation with HiBiT genetically fused to a GPCR. The specificity of interactions was assessed through a decrease in BRET signal due to competitive displacement of the bound tracer. To further gauge the robustness of these interactions, the fold response over the control (i.e., BRETtracer/BRETcontrol) was calculated. We chose a 1.5-fold response, which translates to ≥7-fold signal over noise as the minimal threshold required to score an interaction as positive. […]. Below we highlight the screening results obtained for our exemplary fluorescent tracers based on Clozapine, Amitriptyline and AZD1283.
(§2) HiBiT-GPCR DNA constructs were diluted in 10 mM Tris pH 8 to a final concentration of 0.01 μg/μL, arrayed in 96-well plates and stored at −20 °C. For transfection, HEK293 cells were suspended in Opti-MEM (without phenol red) supplemented with 2% fetal bovine serum (Seradigm) and 100 units/mL penicillin–streptomycin (Gibco) at a final concentration of 220,000 cells/mL and dispensed into white 96-well plates at 90 μL/well. Subsequent transfections and screens were carried using an Agilent Bravo Automated Liquid Handling Platform. First, the 96-well HiBiT DNA arrays were diluted 25-fold in Opti-MEM (without serum or phenol red) to a final concentration of 0.0004 μg/μL and 20 μL of the diluted DNAs were transferred into new 96-well plates. Next, promoterless carrier DNA (1 μg/μL) was diluted 25-fold (0.04 μg/μL) and then dispensed into the diluted arrays at 20 μL/well. Following brief mixing, Viafect transfection reagent (Promega) diluted 16-fold into Opti-MEM was dispensed into the plates at 40 μL/well. After mixing by pipetting, plates were incubated for 10 min on the pipetting station deck. The DNA-transfection reagent complexes were then added to plates containing cells. To facilitate the screen, 10 μL of DNA-transfection reagent complexes were added in duplicates to the top 4 and bottom 4 rows, resulting in two identical 48-well arrays per plate. Plates with transfected cells were incubated for 18–20 h at 37 °C/5% CO2. A screen of each tracer across the entire library using two different concentrations requires duplicate plates of transfected cells. Depending on the number of tracers being screened, transfections can be scaled up using the same ratios. The next day, for each tracer, four 20× screening solutions in tracer dilution buffer (Promega) were prepared: two duplicates at final concentration of 20 μM and two duplicates at a final concentration of 2 μM. A competing unmodified compound was added to one of each duplicate at a final concentration of 400 μM. The four resulting solutions were diluted 4-fold in Opti-MEM without serum or phenol red to generate 5× solutions (5 µM and 0.5 µM tracer +/− 100 μM competing compound). To screen the library, a BioTek MultiFlo FX liquid dispenser was used to dispense 22.5 µL of tracer solution to the top 4 rows and 22.5 µL tracer + competing compound solution to the 4 bottom rows. Plates were briefly mixed on an orbital shaker and incubated for 1.5 h at room temperature. […]

[2] = target: T2, VIPR2 (Homo sapiens, UniProt P41587); assay: NanoBRET screen HiBiT-VIPR2 in HEK293
T2 construct: purchased Promega (in-house HiBiT-GPCR construct library, NanoBRET)
T2 sequence (P41587 24-438): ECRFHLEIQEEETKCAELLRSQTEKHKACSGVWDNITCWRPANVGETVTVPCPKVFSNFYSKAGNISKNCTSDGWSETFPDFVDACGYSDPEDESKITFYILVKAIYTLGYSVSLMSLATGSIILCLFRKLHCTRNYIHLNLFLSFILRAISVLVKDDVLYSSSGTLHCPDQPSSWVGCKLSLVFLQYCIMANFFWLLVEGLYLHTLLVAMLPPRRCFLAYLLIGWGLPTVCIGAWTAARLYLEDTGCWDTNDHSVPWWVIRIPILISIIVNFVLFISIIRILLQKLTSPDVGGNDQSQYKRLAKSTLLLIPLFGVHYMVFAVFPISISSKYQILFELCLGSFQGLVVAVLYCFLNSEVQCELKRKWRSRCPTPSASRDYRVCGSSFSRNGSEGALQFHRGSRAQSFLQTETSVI
Experimental: as §1, §2

[3] = target: T3, LGR6 (Homo sapiens, UniProt Q9HBX8); assay: NanoBRET screen HiBiT-LGR6 in HEK293
T3 construct: purchased Promega (in-house HiBiT-GPCR construct library, NanoBRET)
T3 sequence (Q9HBX8 25-967): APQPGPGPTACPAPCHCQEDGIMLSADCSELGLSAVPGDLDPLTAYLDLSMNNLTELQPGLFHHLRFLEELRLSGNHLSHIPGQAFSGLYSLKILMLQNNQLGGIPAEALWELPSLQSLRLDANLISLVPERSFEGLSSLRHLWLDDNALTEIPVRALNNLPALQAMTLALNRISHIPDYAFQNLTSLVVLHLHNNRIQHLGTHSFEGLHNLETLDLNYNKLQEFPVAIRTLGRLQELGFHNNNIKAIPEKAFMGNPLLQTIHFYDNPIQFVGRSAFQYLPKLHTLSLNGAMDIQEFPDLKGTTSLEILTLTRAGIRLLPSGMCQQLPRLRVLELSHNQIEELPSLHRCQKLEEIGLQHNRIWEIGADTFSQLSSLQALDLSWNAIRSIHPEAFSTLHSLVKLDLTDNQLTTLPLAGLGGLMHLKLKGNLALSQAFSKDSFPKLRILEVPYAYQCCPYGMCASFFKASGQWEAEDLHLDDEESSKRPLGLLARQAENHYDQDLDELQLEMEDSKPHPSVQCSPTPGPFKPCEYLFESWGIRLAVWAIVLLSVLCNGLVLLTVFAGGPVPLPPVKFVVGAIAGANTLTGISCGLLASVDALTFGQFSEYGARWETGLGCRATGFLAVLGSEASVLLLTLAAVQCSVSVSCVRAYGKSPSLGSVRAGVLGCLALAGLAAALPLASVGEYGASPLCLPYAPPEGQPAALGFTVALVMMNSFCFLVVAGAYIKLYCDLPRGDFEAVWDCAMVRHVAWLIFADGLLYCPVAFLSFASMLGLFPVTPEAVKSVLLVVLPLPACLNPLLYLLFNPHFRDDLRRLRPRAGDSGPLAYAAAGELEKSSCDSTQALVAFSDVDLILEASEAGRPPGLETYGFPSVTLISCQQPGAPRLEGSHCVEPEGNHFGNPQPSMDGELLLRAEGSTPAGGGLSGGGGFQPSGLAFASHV
Experimental: as §1, §2

[4] = tracer at 0.1μM, listed as amitriptyline-b-2-NB590
[5] = tracer at 1μM, listed as amitriptyline-b-2-NB590

T1 sequence (P41594 21-1212): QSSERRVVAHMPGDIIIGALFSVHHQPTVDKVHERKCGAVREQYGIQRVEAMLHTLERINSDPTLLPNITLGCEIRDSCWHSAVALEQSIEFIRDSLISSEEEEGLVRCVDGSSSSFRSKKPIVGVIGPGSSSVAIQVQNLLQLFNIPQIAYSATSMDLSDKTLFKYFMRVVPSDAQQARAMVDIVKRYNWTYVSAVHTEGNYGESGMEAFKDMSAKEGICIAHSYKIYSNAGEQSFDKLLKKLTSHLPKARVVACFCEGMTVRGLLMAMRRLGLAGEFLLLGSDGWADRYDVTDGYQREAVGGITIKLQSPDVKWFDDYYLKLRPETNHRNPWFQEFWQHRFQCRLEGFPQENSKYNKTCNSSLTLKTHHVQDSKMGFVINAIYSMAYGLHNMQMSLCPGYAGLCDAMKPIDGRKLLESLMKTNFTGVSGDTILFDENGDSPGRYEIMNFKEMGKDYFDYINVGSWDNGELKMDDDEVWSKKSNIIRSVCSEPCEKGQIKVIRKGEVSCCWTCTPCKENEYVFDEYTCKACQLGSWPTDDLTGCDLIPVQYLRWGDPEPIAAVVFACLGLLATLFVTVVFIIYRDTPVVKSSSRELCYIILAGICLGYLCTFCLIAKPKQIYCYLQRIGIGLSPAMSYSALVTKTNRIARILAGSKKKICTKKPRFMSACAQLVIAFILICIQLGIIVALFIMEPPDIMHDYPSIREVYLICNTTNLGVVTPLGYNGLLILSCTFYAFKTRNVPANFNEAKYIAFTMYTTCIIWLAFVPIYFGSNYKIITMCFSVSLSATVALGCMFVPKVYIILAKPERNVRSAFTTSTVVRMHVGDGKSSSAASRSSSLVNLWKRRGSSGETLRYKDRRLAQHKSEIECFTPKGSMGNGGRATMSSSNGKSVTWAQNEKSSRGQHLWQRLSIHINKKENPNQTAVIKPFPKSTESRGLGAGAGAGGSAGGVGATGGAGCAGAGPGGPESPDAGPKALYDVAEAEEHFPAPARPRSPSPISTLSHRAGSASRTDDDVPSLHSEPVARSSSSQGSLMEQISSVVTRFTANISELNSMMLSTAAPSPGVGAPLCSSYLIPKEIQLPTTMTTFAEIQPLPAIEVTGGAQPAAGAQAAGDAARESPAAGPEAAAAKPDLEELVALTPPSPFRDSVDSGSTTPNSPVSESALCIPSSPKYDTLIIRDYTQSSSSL

Compound: CN(C)CCC=C1c2ccccc2CCc2ccc(C(=O)NCCNC(=O)CCOCCOCCOCCOCCNC(=O)CCc3ccc4n3[B-](F)(F)[N+]3=C(c5ccc[nH]5)C=CC3=C4)cc21 [Amitriptyline-a-2-NB590]
NanoBRET Fold Response ([2]; tracer at 0.1μM): 0.95 | NanoBRET Fold Response ([2]; tracer at 1μM): 1.02 | NanoBRET Fold Response ([3]; tracer at 0.1μM): 0.93 | NanoBRET Fold Response ([3]; tracer at 1μM): 0.97

Compound: CN(C)CCC=C1c2ccccc2CCc2ccc(C(=O)NCCNC(=O)CCOCCOCCOCCOCCNC(=O)CCc3ccc4n3[B-](F)(F)[N+]3=C(c5ccc[nH]5)C=CC3=C4)cc21 [Amitriptyline-b-2-NB590]
NanoBRET Fold Response ([1]; GRM5, tracer 0.1μM): 1.05 | NanoBRET Fold Response ([1]; GRM5, tracer 1μM): 1.02 | NanoBRET Fold Response [2, 4]: 1.31 | NanoBRET Fold Response [2, 5]: 1.31 | NanoBRET Fold Response [3, 4]: 0.92 | NanoBRET Fold Response [3, 5]: 1.14

Compound: CN(CCC=C1c2ccccc2CCc2ccccc21)C(=O)CCOCCOCCOCCOCCNC(=O)CCc1ccc2n1[B-](F)(F)[N+]1=C(c3ccc[nH]3)C=CC1=C2 [Amitriptyline-e-2-NB590]
NanoBRET Fold Response ([2]; tracer at 1μM): 1.06 | NanoBRET Fold Response ([3]; tracer at 1μM): 1.16

Further lines, results first:

NanoBRET Fold Response ([1]; GRM5, 0.1μM): 1.01 | NanoBRET Fold Response ([1]; GRM5, 1μM): 0.97 | NanoBRET Fold Response ([2]; VIPR2, 0.1μM): 1.19 | NanoBRET Fold Response ([2]; VIPR2, 1μM): 1.15 | NanoBRET Fold Response ([3]; LGR6, 0.1μM): 1.27 | NanoBRET Fold Response ([3]; LGR6, 1μM): 0.90
Compound: CCOC(=O)c1cc(C#N)c(N2CCC(C(=O)NS(=O)(=O)Cc3ccccc3/C=C/C(=O)NCCNC(=O)CCc3ccc4n3[B-](F)(F)[N+]3=C(c5ccc[nH]5)C=CC3=C4)CC2)nc1C [AZD1283-1-NB590]

NanoBRET Fold Response ([1]; GRM5, tracer 0.1μM): 1.01 | NanoBRET Fold Response ([1]; GRM5, tracer 1μM): 0.98 | NanoBRET Fold Response ([2]; VIPR2, tracer 0.1μM): 1.01 | NanoBRET Fold Response ([2]; VIPR2, tracer 1μM): 1.08 | NanoBRET Fold Response ([3]; LGR6, tracer 0.1μM): 0.96 | NanoBRET Fold Response ([3]; LGR6, tracer 1μM): 0.88
Compound: N#CN=C(NCCCOc1cccc(CN2CCCCC2)c1)NCCNC(=O)CCOCCOCCOCCOCCNC(=O)CCc1ccc2n1[B-](F)(F)[N+]1=C(c3ccc[nH]3)C=CC1=C2 [Aminopotentidine-2-NB590]

NanoBRET Fold Response ([1]; 0.1μM tracer): 0.84 | NanoBRET Fold Response ([1]; 1μM tracer): 0.95 | NanoBRET Fold Response ([2]; 0.1μM tracer): 0.99 | NanoBRET Fold Response ([2]; 1μM tracer): 0.99 | NanoBRET Fold Response ([3]; 0.1μM tracer): 1.03 | NanoBRET Fold Response ([3]; 1μM tracer): 0.55
Compound: COc1ccc2c(n1)c(CCNC(C)=O)cn2CCNC(=O)CCc1ccc2n1[B-](F)(F)[N+]1=C(c3ccc[nH]3)C=CC1=C2 [Azamelatonin-1-NB590]
